Measurements reported in patent publication EP1884243A1, “Use of an antipsychotic drug for the treatment of ALS-associated cachexia” (Charité - Universitätsmedizin Berlin, priority 2006, dated 2008).

Experiments:
ALS = ALS patients; background statement on the approved therapy; cited from earlier work
ALS-related cachexia [1] = assay: Study 2: olanzapine treatment of ALS-related cachexia, case report of a patient; assay type: in vivo, human being
Description: A patient is reported, who developed a slowly-progressive motor neuron syndrome. The patient fulfilled the criteria for ALS. The disease began with atrophy and weakness of the small muscles of the right hand followed by weakness of the proximal muscles of right arm and the opposite upper limb. In the course of 4 years after onset they experienced progressive atrophy and flaccid paresis of the lower limbs resulting in a gait disorder. […] The patient was without dysphagia.
During the course of 12 months, the patient developed an unintended weight loss of 8.5 kg of body weight. The weight loss was associated with fatigue. The patient suffered from diminished appetite. The body mass index (BMI) reduced from 23.3 kg/ m^2 to 20.5 kg/m^2. At the same time the ALS functional rating scale (ALS-FRS revised) changed from 43 to 39 units. Most of the wasting occurred within 6 month before intervention (loss of 6.5 kg of body weight; total body weight of 61.5 kg). For the pharmacological intervention of ALS-related cachexia the medication with olanzapine was initiated. Olanzapine was given orally in the dosage of 5 mg per day. Olanzapine was administered once daily using one tablet of olanzapine 5 mg in the evening. The medication attenuated ALS-related cachexia and wasting. After 2 month of olanzapine treatment the body weight was stabilized (61.0 kg). The loss of BMI was also attenuated (20.3 kg/m^2). […] Residual motor functions were mobilized. […] At the time of this report, the olanzapine dosage was increased to 10 mg per day. Olanzapine was administered twice daily using one tablet of olanzapine 5 mg each in the morning and in the evening. […] The olanzapine treatment was ongoing. Based on reports on olanzapine-related weight gain in patients with psychosis, the target dose of olanzapine for the treatment of ALS-cachexia is 20 mg per day. In the case of persistent ALS-related weight loss, the treatment with 30 mg olanzapine per day is recommended.

ALS-related cachexia [2] = assay: Study 3: olanzapine treatment of ALS-related cachexia, case report of a patient; assay type: in vivo, human being
Description: A patient is reported, who developed a slowly-progressive motor neuron syndrome. The patient fulfilled the criteria for ALS. The disease began with atrophy and weakness of the proximal left arm followed by weakness of the distal muscles of left upper limb. In the course of 2 years after onset they experienced progressive atrophy and flaccid paresis of the opposite limb with only residual functions in handling articles. After 3 years the disorder progressed to the point that was complete loss of manual functions. The patient developed hypoventilation resulting in ventilatory support using non-invasive intermittent positive pressure ventilation (NIPPV). The patient was without dysphagia.
During the course of 9 months, the patient developed an unintended weight loss of 14.5 kg of body weight. The weight loss was associated with fatigue. The patient suffered from diminished appetite. The body mass index (BMI) reduced from 23.0 kg/ m^2 to 17.5 kg/m^2. Most of the wasting occurred within 5 month before intervention (loss of 8.5 kg of body weight; total body weight reduced from 55 kg to 46.5 kg). For the pharmacological intervention of ALS-related cachexia the medication with olanzapine was initiated. Olanzapine was given orally in the dosage of 5 mg per day. Olanzapine was administered once daily using one tablet of olanzapine 5 mg in the evening. After 4 weeks of treatment, olanzapine dosage was increased to 10 mg per day. Olanzapine was administered twice daily using one tablet of olanzapine 5 mg each in the morning and in the evening. The medication attenuated ALS-related cachexia and wasting. After 2 month of olanzapine treatment the body weight was stabilized (45.5 kg). The loss of BMI was also attenuated (17.1 kg/m^2). The nutritional state and the general strength improved. […] The olanzapine treatment was ongoing. Based on reports on olanzapine-related weight gain in patients with psychosis, the target dose of olanzapine for the treatment of ALS-cachexia is 20 mg per day. In the case of persistent ALS-related weight loss, the treatment with 30 mg olanzapine per day is recommended.

ALS-related cachexia [3] = assay: Study: olanzapine treatment of ALS-related cachexia, case report of a patient; assay type: in vivo, human being
Description: A patient is reported, who developed a slowly-progressive motor neuron syndrome. The patient fulfilled the criteria for definite ALS. The disease began with atrophy and weakness of the small muscles of the left hand followed by weakness of the right distal arm. In the course of 2 years after onset they experienced slowly progressive atrophy and flaccid paresis of the upper limbs with only residual functions in handling articles. After 4 years they developed a gait disorder which progressed to the point were they required a walking-aid. […] The patient was without dysphagia.
During the course of 10 months, the patient developed an unintended weight loss of 12 kg of body weight resulting in fatigue and reduced mobility. The patient suffered from diminished appetite. The body mass index (BMI) was 17.2 kg/m^2 and fulfilled the diagnostic criteria of cachexia. For the pharmacological intervention of ALS-related cachexia the medication with olanzapine was initiated. Olanzapine was given orally in the dosage of 5 mg per day. Olanzapine was administered twice daily using one tablet of olanzapine 2.5 mg each in the morning and in the evening. […] The BMI increased to 18,8 kg/m^2. […] Residual motor functions were mobilized. […] At the time of this report, the olanzapine treatment was ongoing.

Compound	prolonging an ALS-patient's lifetime (ALS)	BMI (ALS-related cachexia [1]; after 2 month of olanzapine 5 mg per day orally, BMI 20.5 kg/m^2 before intervention) [kg/m^2]	body weight (ALS-related cachexia [1]; after 2 month of olanzapine 5 mg per day orally, total body weight 61.5 kg before intervention) [kg]	adverse events (ALS-related cachexia [1]; olanzapine orally 5 mg per day, later increased to 10 mg per day)	body weight (ALS-related cachexia [2]; after 2 month of olanzapine (5 mg per day, after 4 weeks 10 mg per day, orally), 46.5 kg before intervention) [kg]	BMI (ALS-related cachexia [2]; after 2 month of olanzapine (5 mg per day, after 4 weeks 10 mg per day, orally), BMI 17.5 kg/m^2 before intervention) [kg/m^2]	adverse events (ALS-related cachexia [2]; olanzapine orally 5 mg per day, after 4 weeks 10 mg per day)	adverse events (ALS-related cachexia [3]; olanzapine orally 5 mg per day)	weight gain (ALS-related cachexia [3]; olanzapine orally 5 mg per day (2.5 mg twice daily), within the course of 8 weeks, patient, BMI 17.2 kg/m^2 before treatment) [kg]	BMI (ALS-related cachexia [3]; olanzapine orally 5 mg per day, after treatment (8 weeks), BMI before treatment 17.2 kg/m^2)
Nc1nc2ccc(OC(F)(F)F)cc2s1 [Riluzole]	1.5-2.5 months									
Cc1cc2c(s1)Nc1ccccc1N=C2N1CCN(C)CC1 [olanzapine]		20.3	61.0	not associated with adverse events	45.5	17.1	not associated with adverse events	not associated with adverse events	6	18,8 kg/m^2
